Measurements reported in the NIST ThermoML archive (doi:10.1016/j.jct.2009.02.002).
Numbers after ± are expanded uncertainties.

Details: 101.33 kPa, Liquid; for viscosity: Capillary tube (Ostwald / Ubbelohde) method; for mass density: Vibrating tube method
[1] = 298.15 K, automatically measured using an Anton Paar DSA 5000 instrument
[2] = 303.15 K, automatically measured using an Anton Paar DSA 5000 instrument
[3] = 308.15 K, automatically measured using an Anton Paar DSA 5000 instrument

Structure (SMILES) | viscosity (298.15 K) | mass density (298.15 K) | speed of sound [1] | viscosity (303.15 K) | mass density (303.15 K) | speed of sound [2] | viscosity (308.15 K) | mass density (308.15 K) | speed of sound [3] | speed of sound (298.15 K, Pulse-echo method) | speed of sound (303.15 K, Pulse-echo method) | speed of sound (308.15 K, Pulse-echo method)
CC(C)CCCC(C)CCCC(C)CCCCC(C)CCCC(C)CCCC(C)C (configuration not stated) [2,6,10,15,19,23-hexamethyltetracosane] | 28.26 ± 0.14 mPa·s | 805.122 ± 0.14 kg/m3 | 1381.9 ± 0.5 m/s | 22.09 ± 0.11 mPa·s | 801.912 ± 0.14 kg/m3 | 1364.1 ± 0.5 m/s | 17.77 ± 0.09 mPa·s | 798.709 ± 0.14 kg/m3 | 1346.5 ± 0.5 m/s | – | – | –
CC(C)CO [2-methyl-1-propanol] | 3.404 ± 0.021 mPa·s | 798.52 ± 0.14 kg/m3 | 1189.6 ± 0.5 m/s | 2.695 ± 0.017 mPa·s | 794.6 ± 0.14 kg/m3 | 1172.9 ± 0.5 m/s | 2.188 ± 0.014 mPa·s | 790.63 ± 0.15 kg/m3 | 1156.2 ± 0.5 m/s | – | – | –
CCCCCCCCCCCCCCCC [hexadecane] | 3.041 ± 0.019 mPa·s | 770.456 ± 0.15 kg/m3 | – | 2.706 ± 0.017 mPa·s | 766.981 ± 0.15 kg/m3 | – | 2.409 ± 0.015 mPa·s | 763.52 ± 0.15 kg/m3 | – | 1338.6 ± 0.8 m/s | 1320 ± 0.8 m/s | 1301.7 ± 0.8 m/s
